From PMC9599461, “Stereoselectivity in the Membrane Transport of Phenylethylamine Derivatives by Human Monoamine Transporters and Organic Cation Transporters 1, 2, and 3” (Biomolecules, 2022)
Read-outs that look alike come from different tables or passages of the source.

Key:
DAT = DAT (Homo sapiens, UniProt Q01959); test: Stereoselective uptake into DAT-overexpressing HEK293 cells; settings: for Saturable net uptake / Clint ± SEM / Stereoselectivity Vmax / Stereoselectivity Km: DAT; for Saturable net uptake: result in words; for Clint ± SEM: quotient of vmax over Km; for Stereoselectivity Vmax / Stereoselectivity Km: ratio between enantiomers; for Stereoselectivity Km: given as for (S) or for 2 (second-eluting); for selectivity ratio at 2 min: human;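 as to all read-outs here: intracellular accumulation measured by chiral HPLC-MS/MS in stably transfected HEK293 cells, normalized to total protein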
NET = NET (Homo sapiens, UniProt P23975); test: Stereoselective uptake into NET-overexpressing HEK293 cells; settings: for Clint ± SEM: quotient of vmax over Km; for Stereoselectivity Vmax / Stereoselectivity Km: ratio between enantiomers; for selectivity ratio at 2 min: human;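 as to all read-outs here: intracellular enantiomers quantified in cell lysates by chiral HPLC-MS/MS after a 2 min substrate incubation, with uptake normalized to total cellular protein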
OCT2 [1] = target: T1, OCT2 (Homo sapiens, UniProt O15244); test: Stereoselective uptake into OCT2 (wild-type)-overexpressing HEK293 cells; settings: for Clint ± SEM / selectivity ratio at 2 min: OCT2; for Clint ± SEM: quotient of vmax over Km; for selectivity ratio at 2 min: human, ratio between enantiomers
T1 sequence (O15244 1-555 S270A): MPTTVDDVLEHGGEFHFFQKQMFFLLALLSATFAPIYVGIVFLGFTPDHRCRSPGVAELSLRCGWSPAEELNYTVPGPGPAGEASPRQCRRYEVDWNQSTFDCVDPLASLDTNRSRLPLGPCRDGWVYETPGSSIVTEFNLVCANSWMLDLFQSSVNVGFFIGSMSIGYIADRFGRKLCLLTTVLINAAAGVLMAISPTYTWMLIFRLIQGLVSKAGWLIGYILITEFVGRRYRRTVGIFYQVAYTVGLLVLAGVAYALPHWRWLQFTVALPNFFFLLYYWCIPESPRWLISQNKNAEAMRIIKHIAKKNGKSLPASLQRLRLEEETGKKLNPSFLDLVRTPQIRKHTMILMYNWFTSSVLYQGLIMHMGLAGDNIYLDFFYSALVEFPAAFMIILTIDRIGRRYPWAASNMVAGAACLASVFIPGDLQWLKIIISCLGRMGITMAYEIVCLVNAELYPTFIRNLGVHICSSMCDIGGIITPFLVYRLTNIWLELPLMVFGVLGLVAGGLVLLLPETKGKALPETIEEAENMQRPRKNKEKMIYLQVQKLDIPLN
Procedure: (§1) All transport experiments were carried out in HEK293 cells stably overexpressing human MATs or OCTs. […] All cells were regularly cultivated in DMEM supplemented with 10% (v/v) FCS, penicillin (100 U/mL) and streptomycin (100 μg/mL)and kept in culture for no longer than 30 passages.
(§2) For the uptake experiments, 300,000 cells were plated in poly-D-lysine precoated 24-well plates 48 h ahead of the transport experiment. On the day of experiment, cells were initially washed once with 37 °C pre-warmed HBSS+ (Hanks buffered salt solution supplemented with 10 mM HEPES) and subsequently incubated with the substrates dissolved in pre-warmed HBSS+ for exactly two minutes. Incubation was stopped by adding ice-cold HBSS+ followed by two washing steps. After this, cells were lysed with 80% acetonitrile containing 10 ng/mL milnacipran as internal standard for high-performance liquid chromatography coupled to tandem mass spectrometry (HPLC-MS/MS) analysis. For every experiment, two additional wells per cell line were lysed using RIPA buffer for protein quantification. Total protein was quantified using the bicinchoninic acid assay [42]. This was later used for normalization of the uptake data.
(§3) Intracellularly accumulated test substances were quantified by HPLC-MS/MS analysis using a Shimadzu Nexera HPLC system with a SIL-30AC autosampler, a CTO-20AC column oven, a LC-30AD pump, and a CBM-20A controller (Shimadzu, Kyoto, Japan). Stereoselective chromatography was carried out on a [sequence] CBH HPLC column (100 × 3 mm inner dimension with 5 μM particle size; Sigma-Aldrich, Darmstadt, Germany) with a corresponding 10 × 3 mm guard column. Reversed phased chromatography was carried out using an ammonium acetate (NH4Ac) buffered aqueous mobile phase with isopropyl alcohol (IPA) as organic solvent. […] The order of elution of the enantiomers was obtained from available reference literature [43] or by applying enantiopure reference compounds to the chiral HPLC. […] However, in every other case where the order of elution was available, the (R)-enantiomer eluted first. Given the structural similarity of the investigated substances and the fact that separation was performed on the same column with almost identical mobile phases, we assume that this order of elution for our compound set is always the (R)- before the (S)-enantiomer.
(§4) Detection was performed with an API 4000 tandem mass spectrometer (AB SCIEX, Darmstadt, Germany) operating in multiple-reaction-monitoring mode. Quantification was performed using the Analyst 1.6.2 software (AB SCIEX, Darmstadt, Germany) and quantified by comparison to standard curves with known concentrations.
(§5) All uptake data were normalized to protein content to account for variation in the number of seeded sells. Transporter-mediated net uptake was calculated by subtracting uptake into empty vector-transfected control cells from uptake into transporter-transfected cells. Kinetic parameters were then determined after non-linear regression following the Michaelis–Menten equation (v = vmax × [S]/(Km + [S])) using GraphPad Prism (Version 5.01 for Windows, GraphPad Software, La Jolla, CA, USA). Vmax refers to the maximum transport velocity and Km is defined as the substance concentration required to reach half of vmax. The intrinsic clearance Clint was calculated as the quotient of vmax over Km.
(§6) HEK293 cells stably overexpressing wild-type or mutant OCT2 were incubated with 100 μM racemic substance for two minutes.

[2] = test system: OCT2 wild-type versus A270S variant; test: in vitro; settings: human, Transporter selectivity, OCT2 wild-type versus A270S, 100 μM racemic substance, two minutes
SERT [3] = target: T2, SERT (Homo sapiens, UniProt P31645); test: Stereoselective uptake into SERT-overexpressing HEK293 cells; settings: for Clint ± SEM: quotient of vmax over Km;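 as to all read-outs here: uptake into HEK293 cells stably expressing human SERT over 2 min, enantiomers measured in cell lysate by chiral HPLC-MS/MS, normalized to total protein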
Procedure: as §1, §2
(§7) Intracellularly accumulated test substances were quantified by HPLC-MS/MS analysis using a Shimadzu Nexera HPLC system with a SIL-30AC autosampler, a CTO-20AC column oven, a LC-30AD pump, and a CBM-20A controller (Shimadzu, Kyoto, Japan). […] CBH HPLC column (100 × 3 mm inner dimension with 5 μM particle size; Sigma-Aldrich, Darmstadt, Germany) with a corresponding 10 × 3 mm guard column. Reversed phased chromatography was carried out using an ammonium acetate (NH4Ac) buffered aqueous mobile phase with isopropyl alcohol (IPA) as organic solvent. […] The order of elution of the enantiomers was obtained from available reference literature [43] or by applying enantiopure reference compounds to the chiral HPLC.
as §4
(§8) All uptake data were normalized to protein content to account for variation in the number of seeded sells. Transporter-mediated net uptake was calculated by subtracting uptake into empty vector-transfected control cells from uptake into transporter-transfected cells. […] Vmax refers to the maximum transport velocity and Km is defined as the substance concentration required to reach half of vmax. The intrinsic clearance Clint was calculated as the quotient of vmax over Km.

OCT2 A270S variant = test: Stereoselective uptake into OCT2 A270S variant-overexpressing HEK293 cells; settings: 100 μM racemic substance, two minutes;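 also: uptake into HEK293 cells stably overexpressing human OCT2 variants, intracellular enantiomers quantified by chiral HPLC-MS/MS and normalized to total protein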
OCT1 = target: T3, OCT1 (Homo sapiens, UniProt O15245); test: Stereoselective uptake into OCT1-overexpressing HEK293 cells; settings: for Clint ± SEM: quotient of vmax over Km; for selectivity ratio at 2 min: human;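 as to all read-outs here: enantiomers quantified inside cells by chiral HPLC-MS/MS, uptake normalized to total protein from bicinchoninic acid assay, substrates applied in HBSS+ buffer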
T3 sequence (O15245 1-554): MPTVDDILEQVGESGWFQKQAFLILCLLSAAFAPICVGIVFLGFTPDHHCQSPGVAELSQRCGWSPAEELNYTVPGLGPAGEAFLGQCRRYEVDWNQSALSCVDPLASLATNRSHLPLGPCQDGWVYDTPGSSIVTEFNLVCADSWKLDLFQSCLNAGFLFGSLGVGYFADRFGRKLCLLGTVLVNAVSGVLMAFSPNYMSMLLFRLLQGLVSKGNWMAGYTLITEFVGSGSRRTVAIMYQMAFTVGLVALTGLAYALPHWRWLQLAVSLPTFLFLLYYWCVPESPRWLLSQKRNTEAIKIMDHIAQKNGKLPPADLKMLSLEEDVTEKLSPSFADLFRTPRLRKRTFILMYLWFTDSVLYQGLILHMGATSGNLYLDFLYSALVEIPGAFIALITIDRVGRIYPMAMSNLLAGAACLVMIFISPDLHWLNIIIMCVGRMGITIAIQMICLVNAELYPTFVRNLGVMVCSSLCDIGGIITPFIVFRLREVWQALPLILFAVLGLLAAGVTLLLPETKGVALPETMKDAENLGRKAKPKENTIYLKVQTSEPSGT

SERT [4] = target: T2, SERT; test: in vitro
Procedure: as §1, §2, §7, §4, §8

OCT3 = target: T4, OCT3 (Homo sapiens, UniProt O75751); test: Stereoselective uptake into OCT3-overexpressing HEK293 cells; settings: for Clint ± SEM / Stereoselectivity Vmax / Stereoselectivity Km: OCT3; for Clint ± SEM: quotient of vmax over Km; for Stereoselectivity Vmax / Stereoselectivity Km: ratio between enantiomers; for Stereoselectivity Vmax: given as for (R) or for 1; for Stereoselectivity Km: given as for (R) or for 1 (first-eluting); for selectivity ratio at 2 min: human;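 as to all read-outs here: intracellular accumulation in HEK293 cells measured by chiral HPLC-MS/MS after a 2 min substrate exposure at 37 °C, uptake normalized to total protein (bicinchoninic acid assay)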
T4 sequence (O75751 1-556): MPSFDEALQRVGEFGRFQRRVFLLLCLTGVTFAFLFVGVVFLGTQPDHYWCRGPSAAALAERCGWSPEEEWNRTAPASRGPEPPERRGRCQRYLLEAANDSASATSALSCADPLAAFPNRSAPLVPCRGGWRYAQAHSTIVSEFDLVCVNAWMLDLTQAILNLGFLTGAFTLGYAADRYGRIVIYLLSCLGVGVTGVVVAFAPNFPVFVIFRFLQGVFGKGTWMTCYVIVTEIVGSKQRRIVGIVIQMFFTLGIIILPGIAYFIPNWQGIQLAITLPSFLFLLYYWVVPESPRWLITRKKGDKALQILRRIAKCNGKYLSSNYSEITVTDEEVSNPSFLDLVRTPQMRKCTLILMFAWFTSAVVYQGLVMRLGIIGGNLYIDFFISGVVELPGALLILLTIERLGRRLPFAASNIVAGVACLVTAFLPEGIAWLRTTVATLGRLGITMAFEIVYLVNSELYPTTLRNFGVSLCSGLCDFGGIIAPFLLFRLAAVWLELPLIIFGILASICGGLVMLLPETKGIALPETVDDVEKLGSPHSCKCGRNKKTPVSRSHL
Procedure: as §1, §2
Intracellularly accumulated test substances were quantified by HPLC-MS/MS analysis using a Shimadzu Nexera HPLC system with a SIL-30AC autosampler, a CTO-20AC column oven, a LC-30AD pump, and a CBM-20A controller (Shimadzu, Kyoto, Japan). Stereoselective chromatography was carried out on a [sequence] CBH HPLC column (100 × 3 mm inner dimension with 5 μM particle size; Sigma-Aldrich, Darmstadt, Germany) with a corresponding 10 × 3 mm guard column. Reversed phased chromatography was carried out using an ammonium acetate (NH4Ac) buffered aqueous mobile phase with isopropyl alcohol (IPA) as organic solvent. […] The order of elution of the enantiomers was obtained from available reference literature [43] or by applying enantiopure reference compounds to the chiral HPLC. […] Given the structural similarity of the investigated substances and the fact that separation was performed on the same column with almost identical mobile phases, we assume that this order of elution for our compound set is always the (R)- before the (S)-enantiomer.
as §4, §5

OCT2 [5] = target: T5, OCT2 (Homo sapiens, UniProt O15244, S270A); test: Stereoselective uptake into OCT2 (wild-type)-overexpressing HEK293 cells; settings: OCT2, ratio between enantiomers
T5 sequence (O15244 1-555 S270A): T1 sequence (O15244 1-555 S270A)
Procedure: as §1, §2, §3, §4, §5, §6

[6] = Stereoselectivity ClInt, given as for (R) or for 1
[7] = Stereoselectivity Vmax, given as for (R) or for 1
[8] = Stereoselectivity Km, OCT1, ratio between enantiomers, given as for (S) or for 2 (second-eluting)
[9] = Stereoselectivity Vmax, OCT1, ratio between enantiomers, given as for (R) or for 1
[10] = Stereoselectivity Km, given as for (R) or for 1 (first-eluting)
[11] = SERT, ratio between enantiomers, given as for (S) or for 2

T2 sequence (P31645 whole entry): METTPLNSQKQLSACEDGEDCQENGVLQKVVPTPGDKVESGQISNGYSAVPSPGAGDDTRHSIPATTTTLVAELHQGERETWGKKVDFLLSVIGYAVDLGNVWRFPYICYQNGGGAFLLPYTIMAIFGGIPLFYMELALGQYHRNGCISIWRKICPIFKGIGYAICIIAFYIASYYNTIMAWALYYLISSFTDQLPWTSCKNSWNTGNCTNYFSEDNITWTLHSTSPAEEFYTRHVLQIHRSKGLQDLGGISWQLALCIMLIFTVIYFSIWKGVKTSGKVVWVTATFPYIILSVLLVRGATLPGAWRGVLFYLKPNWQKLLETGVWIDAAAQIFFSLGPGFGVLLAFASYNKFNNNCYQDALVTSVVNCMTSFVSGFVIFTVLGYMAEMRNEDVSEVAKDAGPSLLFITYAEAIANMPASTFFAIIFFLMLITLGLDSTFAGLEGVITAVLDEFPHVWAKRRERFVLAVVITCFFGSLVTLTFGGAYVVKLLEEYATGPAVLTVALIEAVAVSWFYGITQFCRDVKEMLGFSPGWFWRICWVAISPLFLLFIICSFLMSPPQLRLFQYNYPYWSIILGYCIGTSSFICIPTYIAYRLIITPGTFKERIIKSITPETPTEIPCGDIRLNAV
Sequence of NET (P23975 whole entry): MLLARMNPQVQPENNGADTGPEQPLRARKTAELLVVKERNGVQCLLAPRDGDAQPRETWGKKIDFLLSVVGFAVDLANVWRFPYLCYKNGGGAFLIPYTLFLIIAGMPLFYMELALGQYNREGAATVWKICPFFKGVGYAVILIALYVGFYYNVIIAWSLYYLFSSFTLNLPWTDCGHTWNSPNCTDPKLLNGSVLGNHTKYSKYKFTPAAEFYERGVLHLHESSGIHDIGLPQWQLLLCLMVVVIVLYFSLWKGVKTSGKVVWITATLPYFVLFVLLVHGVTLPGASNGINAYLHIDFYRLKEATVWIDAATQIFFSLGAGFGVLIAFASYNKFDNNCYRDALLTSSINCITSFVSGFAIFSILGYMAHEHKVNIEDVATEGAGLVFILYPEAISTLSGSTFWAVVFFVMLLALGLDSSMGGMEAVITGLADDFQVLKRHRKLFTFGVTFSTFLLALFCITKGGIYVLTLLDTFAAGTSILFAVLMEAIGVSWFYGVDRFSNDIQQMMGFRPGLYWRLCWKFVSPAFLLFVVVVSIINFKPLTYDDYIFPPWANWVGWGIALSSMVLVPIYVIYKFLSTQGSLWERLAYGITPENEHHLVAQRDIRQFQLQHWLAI
Sequence of DAT (Q01959 whole entry): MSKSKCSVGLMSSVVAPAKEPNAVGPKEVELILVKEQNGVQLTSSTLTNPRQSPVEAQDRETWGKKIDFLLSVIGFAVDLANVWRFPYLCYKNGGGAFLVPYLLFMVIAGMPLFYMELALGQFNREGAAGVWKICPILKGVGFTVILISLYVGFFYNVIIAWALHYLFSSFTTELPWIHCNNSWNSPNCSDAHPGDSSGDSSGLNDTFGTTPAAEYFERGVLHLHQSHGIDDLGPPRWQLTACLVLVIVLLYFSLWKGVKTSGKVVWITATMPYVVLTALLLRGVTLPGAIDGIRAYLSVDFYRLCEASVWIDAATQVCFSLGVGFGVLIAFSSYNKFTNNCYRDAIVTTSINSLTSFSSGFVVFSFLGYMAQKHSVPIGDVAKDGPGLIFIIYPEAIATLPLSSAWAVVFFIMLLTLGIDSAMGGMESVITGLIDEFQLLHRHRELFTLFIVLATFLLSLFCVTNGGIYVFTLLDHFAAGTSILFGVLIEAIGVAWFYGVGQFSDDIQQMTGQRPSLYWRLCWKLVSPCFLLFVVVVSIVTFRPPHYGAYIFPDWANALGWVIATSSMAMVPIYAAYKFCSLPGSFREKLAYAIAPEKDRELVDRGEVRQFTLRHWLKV

SMILES	Saturable net uptake (DAT)	Clint ± SEM (OCT2 [1])	selectivity ratio at 2 min (OCT2 [1]; [6])	selectivity ratio at 2 min (OCT2 [1]; [7])	Stereoselectivity Km (SERT [3]) [fold]	Stereoselectivity Vmax (SERT [3]) [fold]	Clint ± SEM (SERT [3]; SERT)	Clint ± SEM (OCT1; OCT1)	selectivity ratio at 2 min (OCT1; Stereoselectivity ClInt)	selectivity ratio at 2 min (OCT1; [8])	selectivity ratio at 2 min (OCT1; [9])	selectivity ratio (SERT [4])	Clint ± SEM (OCT3)	Stereoselectivity Vmax (OCT3) [fold]	Stereoselectivity Km (OCT3) [fold]	selectivity ratio at 2 min (OCT3)	Clint ± SEM (DAT)	Clint ± SEM (NET; NET)	selectivity ratio at 2 min (NET)	selectivity ratio at 2 min, 100 μM ([2]; given as for WT)	also measured
CNCC(O)c1ccc(O)c(OC)c1 (single isomer, unassigned) [Metanephrine-1, Metanephrine]	No saturable net uptake	20.6 mL × g Protein^−1 × min^−1	2.66	2.13	1.09	1.08	0.58 mL × g Protein^−1 × min^−1	8.09 mL × g Protein^−1 × min^−1	1.16	1.09	1.06	1.01	25.9 mL × g Protein^−1 × min^−1	1.19	1.19	1	–	–	–	–	Saturable net uptake (NET; NET, result in words): No saturable net uptake; Vmax ± SEM (OCT2 [1]; HEK293 cells overexpressing human OCT2, racemic substrate, two minutes, net uptake): 1127 pmol × mg Protein^−1 × min^−1; selectivity ratio at 2 min (OCT2 [1]; Stereoselectivity Km, given as for (S) or for 2 (second-eluting)): 1.25; selectivity ratio at 2 min, 100 μM ([2]; given as for A270S): 1.2; Net uptake by A270S variant in comparison to the wild-type (OCT2 A270S variant): 120%; Vmax ± SEM (OCT1; HEK293 cells overexpressing human OCT1, racemic substrate, two minutes, net uptake): 1082 pmol × mg Protein^−1 × min^−1
NCC(O)c1cccc(O)c1 (single isomer, unassigned) [Norphenylephrine-1, Norphenylephrine]	–	36.4 mL × g Protein^−1 × min^−1	1.4	2.19	1.20	1.27	1.20 mL × g Protein^−1 × min^−1	4.02 mL × g Protein^−1 × min^−1	1.05	–	1.08	1.53	11.0 mL × g Protein^−1 × min^−1	3.88	1.17	3.32	128 mL × g Protein^−1 × min^−1	189 mL × g Protein^−1 × min^−1	1.21	1.18	Stereoselectivity Vmax (DAT; given as for (S) or for 2): 1.55 fold; Stereoselectivity Km (DAT): 1.20 fold; selectivity ratio at 2 min (DAT): 1.29; Stereoselectivity Vmax (NET; NET, given as for (S) or for 2): 1.25 fold; selectivity ratio at 2 min (OCT2 [1]; [10]): 1.57; selectivity ratio at 2 min (OCT1; Stereoselectivity Km, OCT1, ratio between enantiomers, given as for (R) or for 1 (first-eluting)): 1.03
COc1cc(C(O)CN)ccc1O (single isomer, unassigned) [Normetanephrine-1, Normetanephrine]	No saturable net uptake	9.24 mL × g Protein^−1 × min^−1	–	–	–	–	2.23 mL × g Protein^−1 × min^−1	2.46 mL × g Protein^−1 × min^−1	–	–	–	1.28	19.4 mL × g Protein^−1 × min^−1	1.09	1.22	1.12	–	2.71 mL × g Protein^−1 × min^−1	1.28	1.21	Stereoselectivity Vmax (NET; NET, given as for (R) or for 1): 1.06 fold; Stereoselectivity Km (NET; NET, given as for (R) or for 1 (first-eluting)): 1.35 fold; Stereoselectivity ClInt (OCT2 [5]; given as for (R) or for 1): 1.56 fold; Stereoselectivity Km (OCT2 [5]; given as for (R) or for 1 (first-eluting)): 1.32 fold; Stereoselectivity Vmax (OCT2 [5]; given as for (S) or for 2): 2.06 fold; Stereoselectivity Km (SERT [3]; SERT, ratio between enantiomers, given as for (R) or for 1 (first-eluting)): 1.08 fold; Stereoselectivity Vmax (SERT [3]; [11]): 1.67 fold; Stereoselectivity Vmax (OCT1; OCT1, ratio between enantiomers, given as for (R) or for 1): 1.47 fold; Stereoselectivity Km (OCT1; OCT1, ratio between enantiomers, given as for (R) or for 1 (first-eluting)): 1.59 fold; Stereoselectivity ClInt (OCT1; OCT1, ratio between enantiomers, given as for (S) or for 2): 1.08 fold
CNC[C@@H](O)c1ccc(O)cc1 [(S)-Synephrine]	–	24.8 mL × g Protein^−1 × min^−1	–	2.05	–	–	0.61 mL × g Protein^−1 × min^−1	12.1 mL × g Protein^−1 × min^−1	–	1.28	1.35	1.13	27.8 mL × g Protein^−1 × min^−1	1.05	1.11	1.06	10.4 mL × g Protein^−1 × min^−1	7.92 mL × g Protein^−1 × min^−1	4.7	1.2	Stereoselectivity Vmax (DAT; given as for (R) or for 1): 1.84 fold; Stereoselectivity Km (DAT): 1.21 fold; selectivity ratio at 2 min (DAT): 2.23; Stereoselectivity Vmax (NET; NET, given as for (R) or for 1): 1.80 fold; Stereoselectivity Km (NET; NET, given as for (S) or for 2 (second-eluting)): 2.61 fold; selectivity ratio at 2 min (OCT2 [1]; Stereoselectivity ClInt, given as for (S) or for 2): 1.01; selectivity ratio at 2 min (OCT2 [1]; [10]): 2.07; Stereoselectivity Vmax (SERT [3]; [11]): 1.35 fold; Stereoselectivity Km (SERT [3]; SERT, ratio between enantiomers, given as for (S) or for 2 (second-eluting)): 1.52 fold; selectivity ratio at 2 min (OCT1; Stereoselectivity ClInt, OCT1, ratio between enantiomers, given as for (R) or for 1 (also 1.00-fold for 1/2)): 1.73
